Patent US20140294737A1, “TREATMENT OF RHINITIS” (AMPIO PHARMACEUTICALS, INC., priority 2011, published 2014)

Tested on: allergic rhinitis in adult humans
Assay: Phase Ib randomized, double-blinded, placebo-controlled study of danazol intranasal spray; subject-reported Total Nasal Symptom Score (TNSS)
Type: in vivo, human
Parameters: key to Change in rTNSS, Median / Change in AM rTNSS, Median / Change in iTNSS, Median / Change in AM iTNSS, Median: change in TNSS, sum of four 0–3 symptom scores (0–12)
Protocol: A Phase Ib randomized, double-blinded, placebo-controlled, parallel group study was performed to evaluate the efficacy of danazol for treating allergic rhinitis in adult humans. Briefly, the study was performed as follows.
The subjects were male or female humans, 18-65 years of age, with a history of allergic rhinitis that had been receiving therapy (continuous or intermittent) for more than 1 year.
During a seven-day wash out period (days 1-7), the subjects received no treatment of any type and recorded their symptoms twice a day (in the morning before bathing, consumption of food or beverages or strenuous activities and 12 hours later) using the following scale: • 0=absent (no sign/symptom present) • 1=mild (sign/symptom clearly present, but minimal awareness; easily tolerated) • 2=moderate (definite awareness of sign/symptom that is bothersome but tolerable) • 3=severe (sign/symptom that is hard to tolerate; causes interference with activities of daily living and/or sleeping)
The subjects were randomized into treatment groups (danazol or placebo) after the wash out period (on day 8).
Treatment was begun on day 8 and continued through day 21 (14 days total). During treatment, the subjects again recorded their symptoms twice daily (as described above and before administration of the test medications in the morning) using the above scale. The subjects administered 0.3 ml of one of the test medications, 0.15 ml per nostril, once daily in the morning, immediately after recording their symptoms. The first administration of test medications was supervised by test site personnel. The test medications were 0.1% (w/v) danazol intranasal spray and placebo spray (nonmedicinal components in identical intranasal spray format). Efficacy of the test medications was assessed as follows:
The measures of effectiveness in this study included the subject-reported Total Nasal Symptom Score (TNSS). The TNSS is defined as the sum of the subject-reported symptom scores for the four nasal symptoms: rhinorrhea (runny nose), nasal congestion, nasal itching, and sneezing. Each score is assessed on a severity scale ranging from 0 to 3 as defined above.
The subjects were asked to assess both reflective TNSS (i.e., an evaluation of symptom severity over the past 12 hours prior to the recording of the score) and instantaneous TNSS (i.e., an evaluation of the symptom severity over the last 10 minutes).
The reflective and instantaneous TNSS are defined as the sum of the subject-reported symptom scores for the four nasal symptoms. Each subject recorded the symptom scores in the subject's diary. For each score, information recorded in the diary included the following: • rhinorrhea (runny nose) • nasal congestion • nasal itching • sneezing The severity scale for each symptom evaluation is given above.
Mean reflective (r) and instantaneous (i) subject-reported total nasal symptom scores (TNSS) were calculated for each subject. The mean TNSS is the average of all AM and PM daily scores (each score is ranked on a scale from 0-12) during the baseline (baseline efficacy value) and the treatment period (double-blind efficacy value).
The change in efficacy was calculated as the change in the double-blind value—baseline value as follows: • Change in rTNSS: mean double-blind rTNSS—mean baseline rTNSS • Change in iTNSS: mean double-blind iTNSS—mean baseline iTNSS Student's t-test: mean (SD) difference between treatment groups for the following: • Mean change in (rTNSS/iTNSS) • Mean change in AM (rTNSS/iTNSS) • Mean change in PM (rTNSS/iTNSS) • Mean change in individual symptom scores for each of the four nasal symptoms.
The largest improvements were with itchy nose symptoms (Table 8 and FIG. 6).

[1] = Wilcoxon rank-sum analysis, median, n=10
[2] = instantaneous symptom score 0-3, double-blind minus baseline, mean (SD), n=10
[3] = reflective symptom score 0-3, double-blind minus baseline, mean (SD), n=10

With `C#C[C@]1(O)CC[C@H]2[C@@H]3CCC4=Cc5oncc5C[C@]4(C)[C@H]3CC[C@@]21C` [Danazol, 17α-pregna-2,4-dien-20-yno[2,3-d]-isoxazol-17β-ol] the “Change in instantaneous symptom iItchy nose, Median” value [1] was −1.0, the “Change in instantaneous symptom iRunny nose, Median” value [1] was 0.0 and the “Change in instantaneous symptom iSneezing, Median” value [1] was −0.5. For the same molecule, the “Change in instantaneous symptom iStuffy nose, Median” value [1] was −0.5, the “Change in reflective symptom rItchy nose, Median” value [1] was −1.0 and the “Change in reflective symptom rRunny nose, Median” value [1] was −0.25. For the same molecule, the “Change in reflective symptom rSneezing, Median” value [1] was −1.0, the “Change in reflective symptom rStuffy nose, Median” value [1] was 0.0 and the “efficacy measures showing a larger improvement with danazol than with placebo, instantaneous” value (iTNSS measures, all assessments but sneezing) was 6/7. For the same molecule, the “Mean change in iTNSS” value (instantaneous TNSS, all AM and PM scores, double-blind minus baseline, 0.1% (w/v) intranasal spray once daily, 14 days, mean (SD), n=10) was −1.94 (2.68), the “Mean change in PM iTNSS” value (instantaneous TNSS, evening assessment, double-blind minus baseline, mean (SD), n=10) was −1.42 (2.64) and the “Change in PM iTNSS, Median” value (instantaneous TNSS, evening, Wilcoxon rank-sum analysis, median, n=10) was −1.5. For the same molecule, the “Mean change in AM iTNSS” value (instantaneous TNSS, morning assessment, double-blind minus baseline, mean (SD), n=10) was −1.59 (2.36), the “Change in AM iTNSS, Median” value (instantaneous TNSS, morning, Wilcoxon rank-sum analysis, median, n=10) was −1.5 and the “Change in iTNSS, Median” value (instantaneous TNSS, Wilcoxon rank-sum analysis, median, n=10) was −1.75. For the same molecule, the “Mean change in instantaneous symptom iItchy nose” value [2] was −0.70 (0.92), the “Mean change in instantaneous symptom iRunny nose” value [2] was −0.30 (1.07) and the “Mean change in instantaneous symptom iSneezing” value [2] was −0.50 (0.53). For the same molecule, the “Mean change in instantaneous symptom iStuffy nose” value [2] was −0.44 (0.56), the “decrease in instantaneous symptom severity (iTNSS)” value (mean, Student's t-test analysis, vs 1.14 point decrease with placebo) was 1.94 point and the “decrease in reflective symptom severity (rTNSS)” value (mean, Student's t-test analysis, vs 1.16 point decrease with placebo) was 2.11 point. For the same molecule, the “decrease in instantaneous symptom severity (iTNSS)” value (median, Wilcoxon rank-sum analysis, vs 0.75 point decrease with placebo) was 1.75 point, the “decrease in reflective symptom severity during the PM assessment (rTNSS)” value (median, Wilcoxon rank-sum analysis, vs 1.25 point decrease with placebo) was 3.25 point and the “efficacy measures showing a larger improvement with danazol than placebo, reflective” value (rTNSS measures, all assessments but runny nose symptom) was 6/7. For the same molecule, the “Mean change in rTNSS” value (reflective TNSS, all AM and PM scores, double-blind minus baseline, 0.1% (w/v) intranasal spray 0.3 ml once daily, 14 days, mean (SD), n=10) was −2.11 (2.66), the “Mean change in PM rTNSS” value (reflective TNSS, evening assessment, double-blind minus baseline, 0.1% (w/v) intranasal spray once daily, 14 days, mean (SD), n=10) was −2.39 (2.68) and the “Mean change in PM rTNSS” value (reflective TNSS, evening assessment, double-blind minus baseline, 0.1% (w/v) intranasal spray once daily, 14 days, mean (SD), n=10, listed as danazol) was −2.39. The “Change in PM rTNSS, Median” value (reflective TNSS, evening, Wilcoxon rank-sum analysis, median, n=10) was −3.25, the “Mean change in AM rTNSS” value (reflective TNSS, morning assessment, double-blind minus baseline, 0.1% (w/v) intranasal spray once daily, 14 days, mean (SD), n=10) was −1.62 (2.40) and the “Change in AM rTNSS, Median” value (reflective TNSS, morning, Wilcoxon rank-sum analysis, median, n=10) was −2.0. For the same molecule, the “Change in rTNSS, Median” value (reflective TNSS, Wilcoxon rank-sum analysis, median, n=10) was −2.25, the “Mean change in reflective symptom rItchy nose” value [3] was −0.85 (1.02) and the “Mean change in reflective symptom rRunny nose” value [3] was −0.30 (0.66). For the same molecule, the “Mean change in reflective symptom rSneezing” value [3] was −0.47 (0.71) and the “Mean change in reflective symptom rStuffy nose” value [3] was −0.48 (0.69).
